Columns and labels:
11β-HSD1 [1] = molecular target: T1, 11β-HSD1 (Homo sapiens, UniProt P28845); experiment: Inhibition of a microsomal preparation of 11β-HSD1, scintillation proximity assay, microsomes from CHO cells overexpressing human 11β-HSD1 (biological test example 2); format: biochemical; design: expressed in transfected cells; host or cells: CHO cells (microsomes isolated from them); settings: microsomes from CHO cells overexpressing human 11β-HSD1, SPA, [3H]cortisone, 90 minutes at room temperature; read-out: IC50, inhibitory activity on 11β-HSD 1
Description: All reactions were carried out at room temperature in 96 well clear flexible PET Microbeta plates (PerkinElmer). The assay begins by dispensing 49 μl of substrate solution [50 mM HEPES, pH 7.4, 100 mM KCl, 5 mM NaCl, 2 mM MgCl2, 2 mM NADPH and 160 nM [^3H]cortisone (1 Ci/mmol)] and mixing in 1 μL of the test compounds in dimethyl sulfoxide previously diluted in half-log increments (8 points) starting at 0.1 mM. After a 10 minute pre-incubation, 50 μL of enzyme solution containing microsomes isolated from CHO cells overexpressing human 11β-HSD1 (10-20 μg/ml of total protein) was added, and the plates were incubated for 90 minutes at room temperature. The reaction was stopped by adding 50 μl of the SPA beads suspension containing 10 μM 18β-glycyrrhetinic acid, 5 mg/ml protein A coated YSi SPA beads (GE Healthcare) and 3.3 μg/ml of anti-cortisol antibody (East Coast Biologics) in Superblock buffer (Bio-Rad). The plates were shaken for 120 minutes at room temperature, and the SPA signal corresponding to [^3H]cortisol was measured on a Microbeta plate reader.

11β-HSD1 [2] = molecular target: T1, 11β-HSD1; experiment: In vitro inhibition of 11β-HSD1, HTRF detection of cortisol generated by human liver microsomes (biological test example 1); format: biochemical; design: detecting cortisol generated from cortisterone by human liver microsomes; from tissue; host or cells: human liver microsomes; settings: 1 hour at 37° C., cortisone 80 nM, NADPH 200 μM, read-out: IC50, inhibitory activity on 11β-HSD 1
Description: Briefly, compounds were incubated for 1 hour at 37° C. in Tris buffer (20 mM tris, 5 mM EDTA, pH 6.0) containing NADPH (200 μM) and cortisone (80 nM). Cortisol generated in the reaction was then detected with a competitive immunoassay, involving two HTRF conjugates: cortisol linked to XL665 and anti-cortisol antibody labeled with Europium cryptate. The incubation period for detection reaction was typically 2 hours. The amount of cortisol was determined by reading the time-resolved fluorescence of the wells (Ex 320/75 nm; Em 615/8.5 nm and 665/7.5 nm). The ratio of the two emission signals was then calculated (Em665*10000/Em615). […] Each assay also contained a calibration curve with cortisol to transform the fluorescent data into cortisol concentrations. Percent inhibition (% CTL) of each compound was determined relative to the carbenoxolone signal and IC50 curves were generated.

T1 sequence (P28845 whole entry): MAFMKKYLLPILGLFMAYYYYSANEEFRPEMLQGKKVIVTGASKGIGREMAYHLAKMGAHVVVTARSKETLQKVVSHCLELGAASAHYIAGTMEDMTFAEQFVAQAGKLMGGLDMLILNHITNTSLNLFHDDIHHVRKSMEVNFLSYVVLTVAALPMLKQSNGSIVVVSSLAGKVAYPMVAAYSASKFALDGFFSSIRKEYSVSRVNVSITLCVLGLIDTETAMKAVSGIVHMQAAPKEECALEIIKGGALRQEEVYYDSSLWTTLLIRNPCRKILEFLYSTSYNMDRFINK

Row | IC50 (11β-HSD1 [1]) | IC50 (11β-HSD1 [2]) | Structure (SMILES)
1 | 5.2 nM |  | C[C@@H](c1ccc(-c2ccn(C3COC3)c(=O)c2)cc1)N1CC[C@](CC(C)(C)O)(c2ccccc2)OC1=O [Example 26, (S)-6-(2-hydroxy-2-methylpropyl)-3-((S)-1-{4-[1-(oxetan-3-yl)-2-oxo-1,2-dihydropyridin-4-yl]phenyl}ethyl)-6-phenyl-1,3-oxazinan-2-one]
2 | 27.4 nM |  | C[C@@H](c1ccc(-c2ccn(C3CNC3)c(=O)c2)cc1)N1CC[C@](CC(C)(C)O)(c2ccccc2)OC1=O [Example 27, 3-((S)-1-{4-[1-(azetidin-3-yl)-2-oxo-1,2-dihydropyridin-4-yl]phenyl}ethyl)-(S)-6-(2-hydroxy-2-methylpropyl)-6-phenyl-1,3-oxazinan-2-one]
3 | 8.4 nM |  | C[C@@H](c1ccc(-c2cnc(N3CCNC3=O)nc2)cc1)N1CC[C@](CC(C)(C)O)(c2ccccc2)OC1=O [Example 28, (S)-6-(2-hydroxy-2-methylpropyl)-3-((S)-1-{4-[2-(2-oxoimidazolidin-1-yl)pyrimidin-5-yl]phenyl}ethyl)-6-phenyl-1,3-oxazinan-2-one]
4 | 9.8 nM |  | C[C@@H](c1ccc(-c2cnc(N3CCN(C)C3=O)nc2)cc1)N1CC[C@](CC(C)(C)O)(c2ccccc2)OC1=O [Example 29, (S)-6-(2-hydroxy-2-methylpropyl)-3-((S)-1-{4-[2-(3-methyl-2-oxoimidazolidin-1-yl)pyrimidin-5-yl]phenyl}ethyl)-6-phenyl-1,3-oxazinan-2-one]
5 | 3.2 nM |  | C[C@@H](c1ccc(-c2cnc(N3CCCC3=O)nc2)cc1)N1CC[C@](CC(C)(C)O)(c2ccccc2)OC1=O [Example 30, (S)-6-(2-hydroxy-2-methylpropyl)-3-((S)-1-{4-[2-(2-oxopyrrolidin-1-yl)pyrimidin-5-yl)phenyl]ethyl}-6-phenyl-1,3-oxazinan-2-one]
6 | 0.9 nM |  | C[C@@H](c1ccc(-c2ccc(N3CCC3)nn2)cc1)N1CC[C@](CC(C)(C)O)(c2ccccc2)OC1=O [Example 31, 3-((S)-1-{4-[6-(azetidin-1-yl)pyridazin-3-yl]phenyl}ethyl)-(S)-6-(2-hydroxy-2-methylpropyl)-6-phenyl-1,3-oxazinan-2-one]
7 | 0.7 nM |  | C[C@@H](c1ccc(-c2cnc(N3CC(F)C3)nc2)cc1)N1CC[C@](CC(C)(C)O)(c2ccccc2)OC1=O [Example 32, 3-((S)-1-{4-[2-(3-fluoroazetidin-1-yl)pyrimidin-5-yl]phenyl}ethyl)-(S)-6-(2-hydroxy-2-methylpropyl)-6-phenyl-1,3-oxazinan-2-one]
8 |  | 56 nM | C[C@@H](c1ccc(-c2ccc(C3(C(N)=O)CCCC3)nc2)cc1)N1CC[C@](CC(C)(C)O)(c2ccccc2)OC1=O [Example 42, 1-[5-(4-{(S)-1-[(S)-6-(2-Hydroxy-2-methyl-propyl)-2-oxo-6-phenyl-[1,3]oxazinan-3-yl]-ethyl}-phenyl)-pyridin-2-yl]-cyclopentanecarboxylic acid amide]
9 |  | 67 nM | C[C@@H](c1ccc(-c2ccc(C3(C(N)=O)CCCCC3)nc2)cc1)N1CC[C@](CC(C)(C)O)(c2ccccc2)OC1=O [Example 43, 1-[5-(4-{(S)-1-[(S)-6-(2-Hydroxy-2-methyl-propyl)-2-oxo-6-phenyl-[1,3]oxazinan-3-yl]-ethyl}-phenyl)-pyridin-2-yl]-cyclohexanecarboxylic acid amide]
10 |  | 181 nM | CCOC(=O)C1(c2cc(-c3ccc([C@H](C)N4CC[C@](CC(C)(C)O)(c5ccccc5)OC4=O)cc3)ccn2)CC1 [Example 44, 1-[4-(4-{(S)-1-[(S)-6-(2-Hydroxy-2-methyl-propyl)-2-oxo-6-phenyl-[1,3]oxazinan-3-yl]-ethyl}-phenyl)-pyridin-2-yl]-cyclopropanecarboxylic acid ethyl ester]
11 |  | 186 nM | C[C@@H](c1ccc(-c2ccnc(C3(C(=O)O)CC3)c2)cc1)N1CC[C@](CC(C)(C)O)(c2ccccc2)OC1=O [Example 45, 1-[4-(4-{(S)-1-[(S)-6-(2-Hydroxy-2-methyl-propyl)-2-oxo-6-phenyl-[1,3]oxazinan-3-yl]-ethyl}-phenyl)-pyridin-2-yl]-cyclopropanecarboxylic acid]
12 |  | 56 nM | C[C@@H](c1ccc(-c2ccnc(C3(C(N)=O)CC3)c2)cc1)N1CC[C@](CC(C)(C)O)(c2ccccc2)OC1=O [Example 46, 1-[4-(4-{(S)-1-[(S)-6-(2-Hydroxy-2-methyl-propyl)-2-oxo-6-phenyl-[1,3]oxazinan-3-yl]-ethyl}-phenyl)-pyridin-2-yl]-cyclopropanecarboxylic acid amide]
13 |  | 65 nM | CNC(=O)C1(c2cc(-c3ccc([C@H](C)N4CC[C@](CC(C)(C)O)(c5ccccc5)OC4=O)cc3)ccn2)CC1 [Example 47, 1-[4-(4-{(S)-1-[(S)-6-(2-Hydroxy-2-methyl-propyl)-2-oxo-6-phenyl-[1,3]oxazinan-3-yl]-ethyl}-phenyl)-pyridin-2-yl]-cyclopropanecarboxylic acid methylamide]
14 |  | 47 nM | C[C@@H](c1ccc(-c2ccnc(C3(C(=O)N(C)C)CC3)c2)cc1)N1CC[C@](CC(C)(C)O)(c2ccccc2)OC1=O [Example 48, 1-[4-(4-{(S)-1-[(S)-6-(2-Hydroxy-2-methyl-propyl)-2-oxo-6-phenyl-[1,3]oxazinan-3-yl]-ethyl}-phenyl)-pyridin-2-yl]-cyclopropanecarboxylic acid dimethylamide]
15 |  | 73 nM | C[C@@H](c1ccc(-c2ccc(C3(C(N)=O)CCOCC3)nc2)cc1)N1CC[C@](CC(C)(C)O)(c2ccccc2)OC1=O [Example 50, 4-[5-(4-{(S)-1-[(S)-6-(2-Hydroxy-2-methyl-propyl)-2-oxo-6-phenyl-[1,3]oxazinan-3-yl]-ethyl}-phenyl)-pyridin-2-yl]-tetrahydro-pyran-4-carboxylic acid amide]
16 |  | 80 nM | C[C@@H](c1ccc(-c2ccc(C3(C(N)=O)CCC3)nc2)cc1)N1CC[C@](CC(C)(C)O)(c2ccccc2)OC1=O [Example 51, 1-[5-(4-{(S)-1-[(S)-6-(2-Hydroxy-2-methyl-propyl)-2-oxo-6-phenyl-[1,3]oxazinan-3-yl]-ethyl}-phenyl)-pyridin-2-yl]-cyclobutanecarboxylic acid amide]
17 |  | 42 nM | C[C@@H](c1ccc(-c2ccc(C3CCN(C)C3=O)nc2)cc1)N1CC[C@](CC(C)(C)O)(c2ccccc2)OC1=O (stereo partly drawn) [Example 52, (S)-6-(2-Hydroxy-2-methyl-propyl)-3-((S)-1-{4-[6-(1-methyl-2-oxo-pyrrolidin-3-yl)-pyridin-3-yl]-phenyl}-ethyl)-6-phenyl-[1,3]oxazinan-2-one]
18 |  | 43 nM | C[C@@H](c1ccc(-c2ccc(N3CCC[C@@H]3C(N)=O)nc2)cc1)N1CC[C@](CC(C)(C)O)(c2ccccc2)OC1=O [Example 53, (R)-1-[5-(4-{(S)-1-[(S)-6-(2-Hydroxy-2-methyl-propyl)-2-oxo-6-phenyl-[1,3]oxazinan-3-yl]-ethyl}-phenyl)-pyridin-2-yl]-pyrrolidine-2-carboxylic acid amide]
19 |  | 30 nM | C[C@@H](c1ccc(-c2ccc(N3CCC[C@H]3C(N)=O)nc2)cc1)N1CC[C@](CC(C)(C)O)(c2ccccc2)OC1=O [Example 54, (S)-1-[5-(4-{(S)-1-[(S)-6-(2-Hydroxy-2-methyl-propyl)-2-oxo-6-phenyl-[1,3]oxazinan-3-yl]-ethyl}-phenyl)-pyridin-2-yl]-pyrrolidine-2-carboxylic acid amide]
20 |  | 87 nM | C[C@@H](c1ccc(-c2ccc(N3CCC[C@@H]3C(N)=O)nn2)cc1)N1CC[C@](CC(C)(C)O)(c2ccccc2)OC1=O [Example 55, (R)-1-[6-(4-{(S)-1-[(S)-6-(2-Hydroxy-2-methyl-propyl)-2-oxo-6-phenyl-[1,3]oxazinan-3-yl]-ethyl}-phenyl)-pyridazin-3-yl]-pyrrolidine-2-carboxylic acid amide]
21 |  | 29 nM | C[C@@H](c1ccc(-c2ccc(C3(C)CCN(C)C3=O)nc2)cc1)N1CC[C@](CC(C)(C)O)(c2ccccc2)OC1=O (stereo partly drawn) [Example 57, 3-((S)-1-{4-[6-(1,3-Dimethyl-2-oxo-pyrrolidin-3-yl)-pyridin-3-yl]-phenyl}-ethyl)-(S)-6-(2-hydroxy-2-methyl-propyl)-6-phenyl-[1,3]oxazinan-2-one]

Row | Structure (SMILES) | IC50 (11β-HSD1 [1]) | IC50 (11β-HSD1 [2])
22 | C[C@@H](c1ccc(-c2ccc(C3(O)CCN(C)C3=O)nc2)cc1)N1CC[C@](CC(C)(C)O)(c2ccccc2)OC1=O (stereo partly drawn) [Example 56, 3-((S)-1-{4-[6-(3-Hydroxy-1-methyl-2-oxo-pyrrolidin-3-yl)-pyridin-3-yl]-phenyl}-ethyl)-(S)-6-(2-hydroxy-2-methyl-propyl)-6-phenyl-[1,3]oxazinan-2-one] |  | 59 nM

Source: patent publication US9090605B2, “Substituted 5-,6- and 7-membered heterocycles, medicaments containing such compounds, and their use” (Vitae Pharmaceuticals, Inc., priority 2010, dated 2015)
